Source: patent US11180461B2, “Triazoles as Kv3 inhibitors” (AUTIFONY THERAPEUTICS LIMITED, priority 2012, dated 2021)

Columns and labels:
[1] = target: T1, human Kv3.2 channels (hKv3.2) (Homo sapiens, UniProt Q96PR1); experiment: hKv3.2 recombinant cell assay, IonWorks Quattro planar array electrophysiology; assay type: cell-based; conditions: activity quantified by EC50
T1 construct: expressed in transfected cells
T1 sequence (Q96PR1 1-638): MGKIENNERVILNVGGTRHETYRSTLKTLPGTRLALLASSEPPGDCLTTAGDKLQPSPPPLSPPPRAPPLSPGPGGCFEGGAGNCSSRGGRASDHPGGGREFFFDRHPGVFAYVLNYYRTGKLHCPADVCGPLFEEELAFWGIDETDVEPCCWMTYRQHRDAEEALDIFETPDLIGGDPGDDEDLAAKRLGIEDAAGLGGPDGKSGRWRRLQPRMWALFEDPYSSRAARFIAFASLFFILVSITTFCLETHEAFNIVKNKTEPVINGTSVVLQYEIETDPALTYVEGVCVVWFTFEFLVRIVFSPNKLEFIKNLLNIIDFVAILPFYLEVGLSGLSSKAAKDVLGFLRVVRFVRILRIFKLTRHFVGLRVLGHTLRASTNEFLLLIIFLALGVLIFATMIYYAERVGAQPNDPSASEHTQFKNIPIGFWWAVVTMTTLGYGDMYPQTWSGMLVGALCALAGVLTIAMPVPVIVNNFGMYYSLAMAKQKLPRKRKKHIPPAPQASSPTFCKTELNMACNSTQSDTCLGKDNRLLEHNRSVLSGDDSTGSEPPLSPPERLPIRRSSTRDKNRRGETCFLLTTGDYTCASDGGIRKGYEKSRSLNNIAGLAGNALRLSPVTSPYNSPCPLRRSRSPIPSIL
Source text: The ability of the compounds of the invention to modulate the voltage-gated potassium channel subtypes Kv3.2/3.1 may be determined using the following assay. The assay may also be used to determine the ability of compounds of the invention to modulate the voltage-gated potassium channel Kv3.3. Analogous methods may be used to investigate the ability of the compounds of the invention to modulate other channel subtypes.
To assess compound effects on human Kv3.2 channels (hKv3.2), a stable cell line expressing human Kv3.2 channels (hKv3.2) was created by transfecting Chinese Hamster Ovary (CHO)—K1 cells with a pCIH5-hKv3.2 vector. Cells were cultured in DMEM/F12 medium supplemented by 10% Foetal Bovine Serum, 1× non-essential amino acids (Invitrogen) and 500 ug/ml of Hygromycin-B (Invitrogen). Cells were grown and maintained at 37° C. in a humidified environment containing 5% CO2 in air. […]
Experiments were conducted at room temperature using IonWorks Quattro™ planar array electrophysiology technology (Molecular Devices Corp.) with PatchPlate™ PPC. […] Planar electrode hole resistances (Rp) were determined by applying a 10 mV voltage step across each well. […] Test pulses protocol may be performed in the absence (pre-read) and presence (post-read) of the test compound. Pre- and post-reads may be separated by the compound addition followed by a 3 minute incubation. […]

[2] = Determination of in vivo pharmacokinetic parameters (blood and brain) in rats, with and without Elacridar; conditions: rat, oral 1 mg/kg
Experimental: Adult male rats (Charles River, Italy) were dosed with test compound orally at 1 mg/kg (5 ml/kg, in 5% v/v DMSO, 0.5% w/v HPMC in water) and intravenously at 0.5 mg/kg (2 ml/kg, in 5% v/v DMSO 40% w/v PEG400 in saline). After oral administration, blood samples were collected under deep Isofluorane anesthesia from the portal vein and heart of each rat (1 rat per time point). After intravenous administration, serial blood samples were collected from the lateral tail vein of each rat. A further group of rats (n=1 per test compound) received a single intravenous administration of the PgP transport inhibitor, Elacridar (3 mg/kg) shortly before the oral administration of the test compound at 1 mg/kg, as above. Blood and brain samples were collected at a single timepoint of 0.5 h after dose administration for these animals. In all cases, blood samples were collected into potassium EDTA tubes.
Blood and brain samples were assayed for test compound concentration using a method based on protein precipitation with acetonitrile followed by HPLC/MS-MS analysis with an optimized analytical method.
The concentrations of test compound in blood (expressed as ng/ml) and brain (expressed as ng/g) at the different time points following either oral or intravenous dosing were analysed using a non-compartmental pharmacokinetic model using WinNonLin Professional version 4.1. The following parameters were drived:
Intravenous dosing: Maximum concentration over time (Cmax), integrated concentration over time (AUC), clearance (Clb), volume of distribution (Vss) and half-life (t1/2).
Oral dosing: Cmax, time of maximum concentration (Tmax), AUC, bioavailability (F %), fraction absorbed (Fa %), blood to brain ratio (AUC BB), and Fold-change in AUC BB in the presence of Elacridar.

Q: Which “selectivity for modulation of Kv3.2 channels over Kv3.1 channels” value [1] does the source give for `Cc1n[nH]c(=O)n1-c1ccc(Oc2cccc3c2C2(CC2)CO3)nc1` [Example 15, 5-methyl-4-[6-(spiro[1-benzofuran-3,1′-cyclopropan]-4-yloxy)pyridin-3-yl]-2,4-dihydro-3H-1,2,4-triazol-3-one] here?
A: demonstrates selectivity for Kv3.2 channels

Q: What about the “AUC BB relative to Reference Example 87 and Reference Example 88 of WO2011069951A1” value ([2]; AUC BB from blood and brain) of the same compound?
A: at least two fold

Q: What about the “change in AUC BB in the presence of Elacridar” value ([2]; Elacridar 3 mg/kg i.v., blood and brain at 0.5 h, p-glycoprotein interaction) of the same compound?
A: limited change
